This passage reports IC50, inhibition and Activity results from ChEMBL document CHEMBL1811776, “Discovery of benzimidazole derivatives as novel multi-target EGFR, VEGFR-2 and PDGFR kinase inhibitors” (Bioorg Med Chem, 2011).

Calls of active or inactive are those of the source. The rule behind the calls is not given here.

In experiment [1] the test system is HepG2. Briefly: cells. The conditions noted are these: Homo sapiens, HepG2, 72 h.
Description: Cytotoxicity against human HepG2 cells after 72 hrs by MTT assay
The target in experiment [2] is Platelet-derived growth factor receptor alpha (Homo sapiens) (UniProt P16234). Briefly: Inhibition of PDGFR-alpha at 20 uM after 1 hrs by luminescence assay.
Experiment [3] addresses Vascular endothelial growth factor receptor 1 (Homo sapiens) (UniProt P17948). The experiment in a line: Inhibition of VEGFR-1 at 50 uM after 1 hrs by luminescence assay.
Experiment [4] deals with Platelet-derived growth factor receptor alpha (Homo sapiens) (UniProt P16234). Briefly: Inhibition of PDGFR-alpha at 50 uM after 1 hrs by luminescence assay.
Experiment [5] addresses Phosphatidylinositol 4,5-bisphosphate 3-kinase catalytic subunit alpha isoform (Homo sapiens) (UniProt P42336). The experiment in a line: Inhibition of PI3K-alpha at 50 uM after 1 hrs by luminescence assay.
Experiment [6] has as its target Epidermal growth factor receptor (Homo sapiens, UniProt P00533). Briefly: Inhibition of EGFR after 1 hrs by luminescence assay.
Experiment [7] concerns HepG2. Briefly: Induction of apoptosis in human HepG2 cells assessed as early apoptotic cells at 2 uM after 72 hrs using annexin V-propidium iodide staining based flow cytometric analysis. It is filed as functional.
The target in experiment [8] is Platelet-derived growth factor receptor beta (Homo sapiens) (UniProt P09619). Briefly: Inhibition of PDGFR-beta at 50 uM after 1 hrs by luminescence assay.
The subject of experiment [9] is HepG2. The experiment in a line: Induction of apoptosis in human HepG2 cells assessed as late apoptotic or dead cells at 2 uM after 72 hrs using annexin V-propidium iodide staining based flow cytometric analysis. Format: functional.
For experiment [10], the target named is Vascular endothelial growth factor receptor 2 (Homo sapiens) (UniProt P35968). Briefly: Inhibition of VEGFR-2 at 50 uM after 1 hrs by luminescence assay.
The target of experiment [11] is Platelet-derived growth factor receptor beta (Homo sapiens) (UniProt P09619). The experiment in a line: Inhibition of PDGFR-beta at 20 uM after 1 hrs by luminescence assay.
In experiment [12] the target is Vascular endothelial growth factor receptor 2 (Homo sapiens) (UniProt P35968). The experiment in a line: Inhibition of VEGFR-2 at 20 uM after 1 hrs by luminescence assay.

Sequence of Platelet-derived growth factor receptor beta (Homo sapiens) (P09619 whole entry): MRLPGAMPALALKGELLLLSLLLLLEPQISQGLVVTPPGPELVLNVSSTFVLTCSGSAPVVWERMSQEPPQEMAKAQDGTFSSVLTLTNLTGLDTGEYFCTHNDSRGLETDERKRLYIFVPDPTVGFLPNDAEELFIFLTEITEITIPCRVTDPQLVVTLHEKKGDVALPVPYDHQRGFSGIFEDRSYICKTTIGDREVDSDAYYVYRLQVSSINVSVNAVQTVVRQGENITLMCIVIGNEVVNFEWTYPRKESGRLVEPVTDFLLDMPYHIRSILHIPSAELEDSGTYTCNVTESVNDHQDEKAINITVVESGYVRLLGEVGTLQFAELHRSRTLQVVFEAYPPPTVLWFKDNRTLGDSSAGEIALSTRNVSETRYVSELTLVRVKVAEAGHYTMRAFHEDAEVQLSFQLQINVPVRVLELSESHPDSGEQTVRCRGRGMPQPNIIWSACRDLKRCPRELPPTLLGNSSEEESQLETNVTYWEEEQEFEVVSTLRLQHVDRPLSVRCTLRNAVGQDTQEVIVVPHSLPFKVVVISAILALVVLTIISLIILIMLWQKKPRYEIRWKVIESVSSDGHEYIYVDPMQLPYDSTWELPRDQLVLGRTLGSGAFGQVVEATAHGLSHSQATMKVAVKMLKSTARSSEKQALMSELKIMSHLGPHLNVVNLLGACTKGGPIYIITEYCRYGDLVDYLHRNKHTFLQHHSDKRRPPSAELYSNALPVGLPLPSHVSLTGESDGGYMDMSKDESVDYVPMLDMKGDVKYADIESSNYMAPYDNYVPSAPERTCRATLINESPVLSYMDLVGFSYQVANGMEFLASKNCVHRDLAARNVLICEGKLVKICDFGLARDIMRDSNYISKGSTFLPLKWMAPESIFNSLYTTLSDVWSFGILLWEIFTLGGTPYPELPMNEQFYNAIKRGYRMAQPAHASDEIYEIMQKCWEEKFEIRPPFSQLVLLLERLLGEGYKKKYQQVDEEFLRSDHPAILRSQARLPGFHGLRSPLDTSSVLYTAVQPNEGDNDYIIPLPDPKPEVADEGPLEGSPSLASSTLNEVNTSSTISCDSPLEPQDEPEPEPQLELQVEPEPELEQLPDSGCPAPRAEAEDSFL
Sequence of Vascular endothelial growth factor receptor 1 (Homo sapiens) (P17948 whole entry): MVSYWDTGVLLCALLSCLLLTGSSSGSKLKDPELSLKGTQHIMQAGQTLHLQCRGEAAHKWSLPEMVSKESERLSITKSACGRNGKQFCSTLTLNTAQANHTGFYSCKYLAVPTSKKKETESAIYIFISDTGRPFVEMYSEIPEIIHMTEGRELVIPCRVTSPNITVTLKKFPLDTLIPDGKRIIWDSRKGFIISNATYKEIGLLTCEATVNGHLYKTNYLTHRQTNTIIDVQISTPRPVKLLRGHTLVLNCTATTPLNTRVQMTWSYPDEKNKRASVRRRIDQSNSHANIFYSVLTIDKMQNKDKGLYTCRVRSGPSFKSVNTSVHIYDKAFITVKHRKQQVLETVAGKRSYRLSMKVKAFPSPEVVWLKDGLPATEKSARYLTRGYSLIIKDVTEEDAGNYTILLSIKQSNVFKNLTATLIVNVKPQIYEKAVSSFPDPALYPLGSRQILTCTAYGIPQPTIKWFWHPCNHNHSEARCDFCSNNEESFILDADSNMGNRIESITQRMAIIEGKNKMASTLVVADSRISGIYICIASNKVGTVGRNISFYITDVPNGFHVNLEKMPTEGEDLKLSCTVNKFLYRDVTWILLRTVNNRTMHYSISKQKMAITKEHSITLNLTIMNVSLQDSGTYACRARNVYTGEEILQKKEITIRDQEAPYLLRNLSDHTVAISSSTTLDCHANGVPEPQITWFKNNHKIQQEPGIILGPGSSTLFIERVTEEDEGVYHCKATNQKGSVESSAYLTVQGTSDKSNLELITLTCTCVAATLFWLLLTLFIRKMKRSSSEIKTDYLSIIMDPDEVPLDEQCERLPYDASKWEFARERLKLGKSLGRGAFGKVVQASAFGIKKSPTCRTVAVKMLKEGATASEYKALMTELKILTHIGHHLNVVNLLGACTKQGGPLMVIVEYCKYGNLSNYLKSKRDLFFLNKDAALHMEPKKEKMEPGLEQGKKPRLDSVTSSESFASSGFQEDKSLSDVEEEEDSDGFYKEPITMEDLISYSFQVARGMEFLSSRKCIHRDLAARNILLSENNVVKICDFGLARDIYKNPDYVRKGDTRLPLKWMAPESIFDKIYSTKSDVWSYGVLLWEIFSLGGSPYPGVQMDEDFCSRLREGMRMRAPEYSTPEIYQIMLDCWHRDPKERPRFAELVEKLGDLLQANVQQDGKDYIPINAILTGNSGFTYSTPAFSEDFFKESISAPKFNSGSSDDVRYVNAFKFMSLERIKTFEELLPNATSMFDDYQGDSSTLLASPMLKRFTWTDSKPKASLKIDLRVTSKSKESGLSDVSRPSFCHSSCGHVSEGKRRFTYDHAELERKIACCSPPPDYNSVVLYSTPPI
Sequence of Platelet-derived growth factor receptor alpha (Homo sapiens) (P16234 whole entry, canonical isoform): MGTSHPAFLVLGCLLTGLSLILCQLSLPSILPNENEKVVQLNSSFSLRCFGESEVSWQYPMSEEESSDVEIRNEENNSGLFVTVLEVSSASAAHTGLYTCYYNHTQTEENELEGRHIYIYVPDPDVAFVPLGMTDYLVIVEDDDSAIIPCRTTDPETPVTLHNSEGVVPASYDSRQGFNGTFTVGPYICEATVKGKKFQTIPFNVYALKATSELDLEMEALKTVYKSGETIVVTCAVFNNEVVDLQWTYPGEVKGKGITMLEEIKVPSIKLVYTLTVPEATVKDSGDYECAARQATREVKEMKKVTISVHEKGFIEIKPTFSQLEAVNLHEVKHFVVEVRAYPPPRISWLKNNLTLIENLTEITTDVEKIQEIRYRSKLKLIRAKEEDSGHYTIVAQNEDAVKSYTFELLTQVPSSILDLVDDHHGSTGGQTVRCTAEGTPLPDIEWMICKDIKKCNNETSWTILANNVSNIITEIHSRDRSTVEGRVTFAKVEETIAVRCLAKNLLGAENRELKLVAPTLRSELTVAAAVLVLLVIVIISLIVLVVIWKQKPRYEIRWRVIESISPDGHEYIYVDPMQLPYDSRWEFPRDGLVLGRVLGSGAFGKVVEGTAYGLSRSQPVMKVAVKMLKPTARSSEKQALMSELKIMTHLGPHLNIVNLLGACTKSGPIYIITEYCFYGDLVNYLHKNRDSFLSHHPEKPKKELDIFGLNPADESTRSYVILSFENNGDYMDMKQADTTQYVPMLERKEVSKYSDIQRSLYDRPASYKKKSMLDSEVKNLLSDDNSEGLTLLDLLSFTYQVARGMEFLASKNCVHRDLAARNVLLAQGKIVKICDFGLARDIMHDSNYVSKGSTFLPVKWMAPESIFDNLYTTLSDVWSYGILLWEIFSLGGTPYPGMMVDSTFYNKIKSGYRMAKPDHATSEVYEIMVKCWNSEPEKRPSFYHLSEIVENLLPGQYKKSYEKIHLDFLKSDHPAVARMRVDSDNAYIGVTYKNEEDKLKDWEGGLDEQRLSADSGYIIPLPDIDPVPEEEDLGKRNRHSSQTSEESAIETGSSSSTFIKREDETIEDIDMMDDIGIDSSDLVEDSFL
Sequence of Phosphatidylinositol 4,5-bisphosphate 3-kinase catalytic subunit alpha isoform (Homo sapiens) (P42336 whole entry, canonical isoform): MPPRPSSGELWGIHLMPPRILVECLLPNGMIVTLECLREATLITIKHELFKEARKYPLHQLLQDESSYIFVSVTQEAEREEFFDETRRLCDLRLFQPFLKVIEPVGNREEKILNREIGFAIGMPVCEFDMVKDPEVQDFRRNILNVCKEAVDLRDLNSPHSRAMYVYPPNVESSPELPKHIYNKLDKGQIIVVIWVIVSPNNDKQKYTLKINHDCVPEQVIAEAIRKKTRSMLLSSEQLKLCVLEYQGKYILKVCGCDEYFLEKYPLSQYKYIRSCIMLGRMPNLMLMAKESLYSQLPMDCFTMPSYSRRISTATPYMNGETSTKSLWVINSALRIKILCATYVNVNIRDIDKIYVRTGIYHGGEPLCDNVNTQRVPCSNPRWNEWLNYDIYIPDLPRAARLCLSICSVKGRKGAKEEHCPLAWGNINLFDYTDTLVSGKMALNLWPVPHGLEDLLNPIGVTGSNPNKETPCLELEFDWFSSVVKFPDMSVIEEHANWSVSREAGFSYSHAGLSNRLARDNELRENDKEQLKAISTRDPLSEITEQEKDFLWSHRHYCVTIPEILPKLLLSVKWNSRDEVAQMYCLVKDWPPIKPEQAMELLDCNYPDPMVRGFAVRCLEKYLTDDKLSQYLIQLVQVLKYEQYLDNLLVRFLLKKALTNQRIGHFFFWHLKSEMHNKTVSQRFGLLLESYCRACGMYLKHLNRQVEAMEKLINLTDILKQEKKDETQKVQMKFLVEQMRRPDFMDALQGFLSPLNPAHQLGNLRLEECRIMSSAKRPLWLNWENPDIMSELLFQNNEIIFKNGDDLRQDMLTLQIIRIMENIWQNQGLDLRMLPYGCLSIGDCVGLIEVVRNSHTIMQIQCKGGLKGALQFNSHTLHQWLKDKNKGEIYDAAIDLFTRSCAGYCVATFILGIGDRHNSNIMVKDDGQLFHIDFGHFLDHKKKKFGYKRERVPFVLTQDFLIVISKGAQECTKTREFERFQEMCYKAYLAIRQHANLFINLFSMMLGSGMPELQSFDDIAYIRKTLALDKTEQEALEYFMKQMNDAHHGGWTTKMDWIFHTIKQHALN

In turn, `Cc1ccc(-c2nc3cc(NC(=O)CN4CCCCC4)ccc3[nH]2)cc1` registered an IC50 in experiment [1] of more than 50 µM.
Turning to `CN[C@@H]1C[C@H]2O[C@@](C)([C@@H]1OC)n1c3ccccc3c3c4c(c5c6ccccc6n2c5c31)C(=O)NC4`, the inhibition in experiment [2] was determined as 97.5%; in experiment [3], 93.4%; in experiment [4], 92.6%; in experiment [5], 97%.
For the compound `CCN1CCN(CCC(=O)Nc2ccc3[nH]c(-c4ccc(C)cc4)nc3c2)CC1`, half-maximal inhibition in experiment [1] (IC50) was put at 14.6 µM.
Still for that read-out and setting: in the case of `Cn1cccc1-c1nc2cc(NC(=O)CCCl)ccc2[nH]1` it was more than 50 µM.
For `Cn1cccc1-c1nc2cc(NC(=O)CCl)ccc2[nH]1`, the values for the IC50 in [6] and in [1] were 12.1 µM and 1.8 µM, respectively. For the same compound, the Activity is on record as 22.8% in experiment [7] and 18.7% in experiment [9]. Besides, the inhibition result in experiment [3] was “inactive”. For the same compound, the inhibition in experiment [4] was 18.7%; in experiment [8], 17.8%; in [5] it was 3.7%; in experiment [10] it was 16.5%.
For the compound `O=C(Nc1ccc2[nH]c(-c3ccc(F)cc3)nc2c1)c1cnccn1`, the inhibition came to 2.55% in experiment [2], 0.27% in [11] and 0.58% in [12].
For the compound `CCN1CCN(CC(=O)Nc2ccc3[nH]c(-c4cccn4C)nc3c2)CC1`, in experiment [1], the IC50 is more than 50 µM.
With `Cc1ccc(-c2nc3cc(NC(=O)CCCl)ccc3[nH]2)cc1`, the values for the inhibition in experiment [3], in experiment [4] and in experiment [8] were 3.3%, 17% and 24.6%, respectively. In addition, the inhibition result in experiment [5] and in experiment [10] was “inactive” in each case. In [1], this compound had an IC50 of more than 50 µM.
In [1], `Cc1ccc(-c2nc3cc(NC(=O)CN4CCCC4)ccc3[nH]2)cc1` had an IC50 of more than 50 µM.
With `Cc1cnc(C(=O)Nc2ccc3[nH]c(-c4ccc(F)cc4)nc3c2)cn1`, the inhibition was determined as 5.43% in [2], 0.5% in [11] and 0.5% in experiment [12].
In experiment [1], `Cc1ccc(-c2nc3cc(NC(=O)CCN4CCN(C)CC4)ccc3[nH]2)cc1` showed an IC50 of more than 50 µM.
The compound `Cc1ccc(-c2nc3cc(NC(=O)CN4CCOCC4)ccc3[nH]2)cc1` came in with an IC50 in experiment [1] of more than 50 µM.
`Cc1ccc(-c2nc3cc(NC(=O)CN4CCN(C)CC4)ccc3[nH]2)cc1`: the IC50 in [1] is more than 50 µM.
In experiment [1], `CCN1CCN(CC(=O)Nc2ccc3[nH]c(-c4ccc(C)cc4)nc3c2)CC1` showed an IC50 of 31.9 µM.
For `Cc1ccc(-c2nc3cc(NC(=O)CCl)ccc3[nH]2)cc1`, the IC50 in [6] turned out to be 1.93 µM; in experiment [1], 2 µM. The figures for the Activity in [7] and in [9] were 28.6% and 16.6%, respectively. For the same compound, the inhibition in [3] was 7.3%; in experiment [4], 42.7%; in experiment [8], 52.6%; in experiment [10] it was 33.1%. The inhibition result in experiment [5] was “inactive”.
Regarding `CCN1CCN(CCC(=O)Nc2ccc3[nH]c(-c4ccc(Br)cc4)nc3c2)CC1`, in experiment [1], half-maximal inhibition (IC50) was put at 27.4 µM.
In [1], `CCN1CCN(CCC(=O)Nc2ccc3[nH]c(-c4cccn4C)nc3c2)CC1` displayed an IC50 of more than 50 µM.
On the same count and under the same terms, in the case of `COc1cc2c(c(OC)c1OC)-c1ccc(OC)c(=O)cc1[C@@H](NC(C)=O)CC2` [COLCHICINE] it was 0.05 µM; in that of `Cc1ccc(-c2nc3cc(NC(=O)CCN4CCCCC4)ccc3[nH]2)cc1`, 11.9 µM.
`O=C(CCCl)Nc1ccc2[nH]c(-c3ccc(Br)cc3)nc2c1` came in with an IC50 in experiment [1] of 11.3 µM.
